Literature values, collected in patent publication US20230033410A1, “COMPLEX FORMULATION COMPRISING SITAGLIPTIN AND DAPAGLIFLOZIN, AND PREPARATION METHOD THEREFOR” (HANMI PHARM. CO.,LTD., priority 2019, published 2023).
Read-outs that look alike come from different tables or passages of the source.

Details: plasma

In the case of `CCOc1ccc(Cc2cc([C@@H]3O[C@H](CO)[C@@H](O)[C@H](O)[C@H]3O)ccc2Cl)cc1` [dapagliflozin, (2S,3R,4R,5S,6R)-2-[4-chloro-3-(4-ethoxybenzyl)phenyl]-6-(hydroxymethyl)tetrahydro-2H-pyran-3,4,5-triol], the Tmax (range in brackets) is listed as 1 to 2 h and the Tmax (stated for both drugs) is listed as “about 1 hour”.
In the case of `N[C@@H](CC(=O)N1CCn2c(nnc2C(F)(F)F)C1)Cc1cc(F)c(F)cc1F` [sitagliptin, (R)-3-amino-1-(3-(trifluoromethyl)-5,6-dihydro-[1,2,4]triazolo[4,3-a]pyrazin-7(8H)-yl)-4-(2,4,5-trifluorophenyl)butan-1-one], the Tmax (range in brackets) is listed as 1 to 4 h and the Tmax (stated for both drugs) is listed as “about 1 hour”.
